Patent US20240050590A1, “METHODS AND COMPOSITIONS TO REGULATE CHOLESTEROL EFFLUX TO PREVENT, TREAT, OR CURE MACULAR DEGENERATION” (The Trustees of Columbia University in the City of New York, priority 2021, published 2024)
“Also recorded” adds a separate entry of the source.

Experiments:
Assay type in all cases: cell-based, human
[1] = tested on: iRPE cells; assay: Nile red staining and quantification of intracellular lipid droplets in iRPE cells; design: amount of lipid droplets: dose or concentration left out as unconfirmed; conditions: EFEMP1^R345W iRPE, 2 weeks, vs untreated
Method: Nile red staining To stain the intracellular neutral lipid, the iRPE cell cultures were treated with […] Nile red (Sigma Aldrich) for 30 min at 37° C. The cells were washed with PBS three times before microscopy observation.
Since mature iRPE culture is usually 100% confluent, the Nile red-positively stained lipid droplets were quantified using ImageJ in a fixed area of 90,000 square micrometers for the number and size of Nile red-positive signals. Fluorescent particles smaller than 0.0001 square micrometers was excluded as noise.
(§1) Lentiviral transduction For the knockdown of CES1 (MIM: 114835) in iRPE cells, the iRPE cells from healthy donor were cultured in 6-well plate. The lentiviral particles carrying CES1 shRNA (Locus ID 1066, Origene) were transduced into the iRPE cells at a MOI of 10 overnight. To establish fair comparison, the control iRPE cells were transduced with viral particles expressing scramble shRNA. The medium was refreshed the following day, and the cell were incubated for 7 days before analysis. To achieve overexpression of CES1 in iRPE cells, lentiviral particles (Origene) expressing CMV promoter-driven CES1 (GenBank: NM_001025194) were transduced following the same procedure.

[2] = tested on: CES1 expression in EFEMP1^R345W iRPE cells; assay: Western blot of CES1 expression in EFEMP1^R345W iRPE cells treated with EGF; conditions: 100 nM EGF, 72 h incubation, vs untreated cells
Method: (§2) Immunoblot To verify the differentiation of iRPE, CRALBP (Ab15051, Abcam) and RPE65 (401.8B11.3D9, Novas Biologicals) antibodies were used to detect mature RPE markers including CRALBP and RPE65 in iRPE cell lysates via western blot. To determine EFEMP1 expression in iRPE, both cell lysates and culture supernatant were assayed using anti-EFEMP1 antibody (MA5-25740, Thermo Fisher Scientific). To detect CES1 expression in iRPE, anti-CES1 antibody (AF4920, R&D) was used. Anti-alpha tubulin (T5168, Sigma Aldrich), anti-beta actin (A5316, Sigma), or anti-GAPDH (5174, Cell Signaling) antibodies were used to detect house-keeping proteins. The cell lysates were collected using RIPA buffer (Thermo Fisher Scientific).

[3] = tested on: iRPE cells; assay: Cholesterol efflux assay in iRPE cells; design: dose or concentration left out as unconfirmed; conditions: EFEMP1^R345W iRPE
Method: Cholesterol efflux assay Cholesterol Efflux Assay Kit (Abcam) was used to determine the cholesterol efflux rate in iRPE according to the manufacturer's protocol. In brief, fluorescence-labeled cholesterol was added to iRPE culture and incubated overnight. On the next day, the cells were washed twice with PBS, and the efflux of cholesterol was induced by 2% human serum. At designated time points, the culture supernatant and cell lysate were collected and measured by fluorescence at Ex/Em: 482/515 nm. The percentage of cholesterol efflux was calculated by fluorescence intensity of media fluorescence/(fluorescence intensity of cell lysate+media)×100.
as §1

[4] = tested on: CES1 expression in EFEMP1^WT iRPE cells; assay: Western blot of CES1 expression in normal (EFEMP1^WT) iRPE cells after treatment with agonists and antagonists; conditions: EFEMP1^WT iRPE cells from healthy donor, 72 h treatment, vs untreated control; LY294002 10 μM, GW4064 5 μM, GW3965 3 μM
Method: as §2
To understand the upstream regulators of CES1 expression, the iRPE cells from healthy donor were treated with Gefitnib ([…], Sigma Aldrich), ML385 ([…], Sigma Aldrich), LY294002 (10 μM, Sigma Aldrich), GW4064 (5 μM, Sigma Aldrich), or GW3965 (3 μM, Sigma Aldrich) for 72 h. Anti-CES1 (AF4920, R&D) and anti-alpha tubulin (T5168, Sigma Aldrich) antibodies were used to detect CES1 and tubulin expression, respectively. The signal was detected using Immobilon Western Chemiluminescent HRP Substrate (Millipore). The blot was quantified using ImageJ for signal intensity.

Molecule: epidermal growth factor [EGF]
- lipid droplet size ([1]; 100 mM EGF): not obvious
- amount of lipid droplets ([1]; EGF): significant decrease; also recorded: ameliorates intracellular lipid droplet accumulation
- CES1 level (western blot) [2]: remarkably higher
- cholesterol efflux (in words) ([3]; EGF for two weeks, vs untreated): improve cholesterol efflux
- increase in cholesterol efflux ([3]; EGF, 2 weeks, vs untreated control): 26%

Molecule: COc1cc2ncnc(Nc3ccc(F)c(Cl)c3)c2cc1OCCCN1CCOCC1 [gefitinib]
- CES1 expression level (western blot) [4]: remarkably reduced

Molecule: CC(C)c1onc(-c2c(Cl)cccc2Cl)c1COc1ccc(/C=C/c2cccc(C(=O)O)c2)c(Cl)c1 [GW4064]
- CES1 expression level (western blot) [4]: no change in CES1 expression

Molecule: O=C(O)Cc1cccc(OCCCN(Cc2cccc(C(F)(F)F)c2Cl)CC(c2ccccc2)c2ccccc2)c1 [GW3965]
- CES1 expression level (western blot) [4]: no change in CES1 expression

Molecule: Cc1ccccc1C(=O)N1CCc2cc(-c3nc(NC(=O)Cc4ccc5c(c4)OCO5)sc3C)ccc21 [ML385]
- CES1 expression level (western blot) [4]: only LY294002 reduced CES1 expression
